Measurements published in patent US12227495B2, “Herbicidal compounds” (SYNGENTA CROP PROTECTION AG, priority 2018, dated 2025).

Columns and labels:
Format in all cases: in vivo
Conditions in all cases: evaluated after 13 days
[1] = tested on: Amaranthus retoflexus (AMARE); experiment: Post-emergence herbicide test, glasshouse, percentage damage
Procedure, shortened: (§1)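 Spray: acetone/water (50:50) with 0.5% Tween 20, 500 g/ha unless stated; pre-emergence 1 d after sowing, post-emergence at 8 d. Glasshouse 24/16 °C, 14 h light, 65% RH, watered twice daily. Read at 13 d, % damage as 1-5 score.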

[2] = tested on: Echinochloa crus-galli (ECHCG); experiment: as above
Procedure, shortened: as §1

[3] = tested on: Ipomoea hederacea (IPOHE); experiment: as above
Procedure, shortened: as §1

[4] = tested on: Lolium perenne (LOLPE); experiment: as above
Procedure, shortened: as §1

[5] = tested on: Setaria faberi (SETFA); experiment: as above
Procedure, shortened: as §1

[6] = tested on: Solanum nigrum (SOLNI); experiment: as above
Procedure, shortened: as §1

[7] = tested on: Amaranthus retoflexus (AMARE); experiment: Pre-emergence herbicide test, glasshouse, percentage damage
Procedure, shortened: as §1

[8] = tested on: Echinochloa crus-galli (ECHCG); experiment: as above
Procedure, shortened: as §1

[9] = tested on: Ipomoea hederacea (IPOHE); experiment: as above
Procedure, shortened: as §1

[10] = tested on: Lolium perenne (LOLPE); experiment: as above
Procedure, shortened: as §1

[11] = tested on: Setaria faberi (SETFA); experiment: as above
Procedure, shortened: as §1

[12] = tested on: Solanum nigrum (SOLNI); experiment: as above
Procedure, shortened: as §1

SMILES | percentage damage caused to the plant, AMARE ([1]; 1000 g/ha) | percentage damage caused to the plant, ECHCG ([2]; 1000 g/ha) | percentage damage caused to the plant, IPOHE ([3]; 1000 g/ha) | percentage damage caused to the plant, LOLPE ([4]; 1000 g/ha) | percentage damage caused to the plant, SETFA ([5]; 1000 g/ha) | percentage damage caused to the plant, SOLNI ([6]; 1000 g/ha) | Pre-emergence Test AMARE percentage damage (five point scale) ([7]; rate 1000 g/ha) | Pre-emergence Test ECHCG percentage damage (five point scale) ([8]; rate 1000 g/ha) | Pre-emergence Test IPOHE percentage damage (five point scale) ([9]; rate 1000 g/ha) | Pre-emergence Test LOLPE percentage damage (five point scale) ([10]; rate 1000 g/ha) | Pre-emergence Test SETFA percentage damage (five point scale) ([11]; rate 1000 g/ha) | Pre-emergence Test SOLNI percentage damage (five point scale) ([12]; rate 1000 g/ha) | also measured
Fc1cc(Cl)cnc1Oc1ccccc1-c1csc(Cl)c1 [Compound A69] | 3 (3=41-60%) | 4 (4=61-80%) | 2 (2=21-40%) | 1 (1=0-20%) | 3 (3=41-60%) | 4 (4=61-80%) | 3 (3=41-60%) | 1 (1=0-20%) | 1 (1=0-20%) | 1 (1=0-20%) | 1 (1=0-20%) | 1 (1=0-20%) | –
Fc1cc(Cl)cnc1Oc1ccccc1-c1ccsc1 [Compound A70] | 3 (3=41-60%) | 3 (3=41-60%) | 1 (1=0-20%) | 1 (1=0-20%) | 2 (2=21-40%) | 4 (4=61-80%) | 2 (2=21-40%) | 1 (1=0-20%) | 1 (1=0-20%) | 1 (1=0-20%) | 1 (1=0-20%) | 1 (1=0-20%) | –
COc1csc(-c2ccccc2Oc2ncc(Cl)cc2F)c1 [Compound A71] | 4 (4=61-80%) | 1 (1=0-20%) | 1 (1=0-20%) | 1 (1=0-20%) | 2 (2=21-40%) | 5 (5=81-100%) | 5 (5=81-100%) | 1 (1=0-20%) | 1 (1=0-20%) | 1 (1=0-20%) | 1 (1=0-20%) | 1 (1=0-20%) | –
Fc1cccc(Oc2ccc(C(F)F)cn2)c1-c1cc(C(F)F)no1 [Compound A77] | – | – | – | – | – | – | – | – | – | – | – | – | percentage damage caused to the plant, AMARE ([1]; 250 g/ha): 5 (5=81-100%); percentage damage caused to the plant, ECHCG ([2]; 250 g/ha): 2 (2=21-40%); percentage damage caused to the plant, IPOHE ([3]; 250 g/ha): 1 (1=0-20%); percentage damage caused to the plant, LOLPE ([4]; 250 g/ha): 2 (2=21-40%); percentage damage caused to the plant, SETFA ([5]; 250 g/ha): 5 (5=81-100%); percentage damage caused to the plant, SOLNI ([6]; 250 g/ha): 5 (5=81-100%); Pre-emergence Test AMARE percentage damage (five point scale) ([7]; rate 250 g/ha): 5 (5=81-100%); Pre-emergence Test ECHCG percentage damage (five point scale) ([8]; rate 250 g/ha): 2 (2=21-40%); Pre-emergence Test IPOHE percentage damage (five point scale) ([9]; rate 250 g/ha): 1 (1=0-20%); Pre-emergence Test LOLPE percentage damage (five point scale) ([10]; rate 250 g/ha): 2 (2=21-40%); Pre-emergence Test SETFA percentage damage (five point scale) ([11]; rate 250 g/ha): 5 (5=81-100%); Pre-emergence Test SOLNI percentage damage (five point scale) ([12]; rate 250 g/ha): 4 (4=61-80%)
Fc1cccc(Oc2cc(C(F)(F)F)c(C(F)(F)F)cn2)c1-c1cc(C(F)F)no1 [Compound A78] | 3 (3=41-60%) | 1 (1=0-20%) | 1 (1=0-20%) | 1 (1=0-20%) | 1 (1=0-20%) | 4 (4=61-80%) | 1 (1=0-20%) | 1 (1=0-20%) | 1 (1=0-20%) | 1 (1=0-20%) | 2 (2=21-40%) | 1 (1=0-20%) | –
Fc1cccc(Oc2nc(Cl)ccc2C(F)(F)F)c1-c1cc(C(F)F)no1 [Compound A80] | 5 (5=81-100%) | 1 (1=0-20%) | 1 (1=0-20%) | 1 (1=0-20%) | 1 (1=0-20%) | 5 (5=81-100%) | 2 (2=21-40%) | 1 (1=0-20%) | 1 (1=0-20%) | 1 (1=0-20%) | 1 (1=0-20%) | 1 (1=0-20%) | –
Fc1cc(Cl)cnc1Oc1ccccc1-n1ncc(C(F)(F)F)n1 [Compound A81] | 5 (5=81-100%) | 4 (4=61-80%) | 2 (2=21-40%) | 1 (1=0-20%) | 4 (4=61-80%) | 4 (4=61-80%) | 5 (5=81-100%) | 4 (4=61-80%) | 2 (2=21-40%) | 1 (1=0-20%) | 4 (4=61-80%) | 3 (3=41-60%) | –
Fc1cc(Cl)cnc1Oc1ccccc1-n1cc(C(F)(F)F)nn1 [Compound A82] | 5 (5=81-100%) | 4 (4=61-80%) | 5 (5=81-100%) | 5 (5=81-100%) | 5 (5=81-100%) | 5 (5=81-100%) | 5 (5=81-100%) | 5 (5=81-100%) | 5 (5=81-100%) | 5 (5=81-100%) | 5 (5=81-100%) | 4 (4=61-80%) | –
Fc1cc(Cl)cnc1Oc1c(Br)cccc1-c1cc(C(F)F)no1 [Compound A83] | 5 (5=81-100%) | 4 (4=61-80%) | 2 (2=21-40%) | 4 (4=61-80%) | 4 (4=61-80%) | 4 (4=61-80%) | 4 (4=61-80%) | 2 (2=21-40%) | 1 (1=0-20%) | 1 (1=0-20%) | 2 (2=21-40%) | 1 (1=0-20%) | –
N#Cc1cc(F)cnc1Oc1cccc(Br)c1-c1cc(C(F)F)no1 [Compound A84] | 5 (5=81-100%) | 5 (5=81-100%) | 5 (5=81-100%) | 5 (5=81-100%) | 5 (5=81-100%) | 5 (5=81-100%) | 5 (5=81-100%) | 5 (5=81-100%) | 5 (5=81-100%) | 5 (5=81-100%) | 5 (5=81-100%) | 4 (4=61-80%) | –
N#Cc1cc(F)cnc1Oc1cccc(Cl)c1-c1cc(C(F)F)no1 [Compound A85] | 5 (5=81-100%) | 5 (5=81-100%) | 5 (5=81-100%) | 5 (5=81-100%) | 5 (5=81-100%) | 5 (5=81-100%) | 5 (5=81-100%) | 5 (5=81-100%) | 5 (5=81-100%) | 5 (5=81-100%) | 5 (5=81-100%) | 5 (5=81-100%) | –
FC(F)c1cc(-c2c(Br)cccc2Oc2cc(Cl)ccn2)on1 [Compound A86] | 4 (4=61-80%) | 4 (4=61-80%) | 4 (4=61-80%) | 4 (4=61-80%) | 4 (4=61-80%) | 4 (4=61-80%) | 4 (4=61-80%) | 5 (5=81-100%) | 1 (1=0-20%) | 4 (4=61-80%) | 5 (5=81-100%) | 2 (2=21-40%) | –
